Columns and labels:
[1] = test system: rats that underwent small bowel transplantation; assay: intestinal transit of orally fed fluorescein-labeled dextran after SITx; type: in vivo, rat; conditions: for distribution of fluorescent label along the gastrointestinal tract: 2 hours after oral feeding
Procedure: To determine whether CO is protective against ileus associated with small bowel transplantation, orthotopic SITx was performed in syngenic Lewis rats. SITx with caval drainage was performed using a previously described procedure. […] The graft was perfused via the aortic segment with 5 ml chilled Ringer's lactate solution, and the intestinal lumen was irrigated with 20 ml of cold saline solution containing 0.5% neomycin-sulfate (Sigma, St. Louis, Mo.). End-to-side anastomoses between the graft aorta and the recipient infrarenal aorta, and between the graft portal vein and recipient vena cava, were performed with 10-0 Novafil™ suture. The cold ischemic time was 1 hour. The entire recipient intestine was removed and the enteric continuity was restored by proximal and distal end-to-end intestinal anastomoses. Recipient animals were given 20 mg/day prophylactic cefamandole nafate for 3 postoperative days. Transplanted recipients were given water 3 hours after surgery, and were fed 24 hours after surgery.
Four groups of animals were examined in this study, two of which received a SITx. Group 1 consisted of unoperated normal rats. Group 2 animals were exposed to CO with no surgery. In Group 3, syngeneic SITx were performed and the recipients kept in room air. Group 4 consisted of SITx recipients that were placed in the CO chamber for 1 hour before surgery and then re-exposed to CO immediately following surgery until sacrificed. In both Groups 3 and 4, normal LEW rats served as donors.
The animals were exposed to CO at a concentration of 250 ppm. Briefly, 1% CO in air was mixed with air (21% oxygen) in a stainless steel mixing cylinder and then directed into a 3.70 ft^3 glass exposure chamber at a flow rate of 12 L/min. A CO analyzer (Interscan, Chatsworth, Calif.) was used to measure CO levels continuously in the chamber. CO concentrations were maintained at 250 ppm at all times. The animals were supplied food and water during the exposures.
Intestinal transit was measured in controls and manipulated animals 48 hours postoperatively by evaluating the intestinal distribution of fluorescein-labeled dextran (Molecular Probes). Animals were lightly sedated with inhaled isofluran and fed orally with labeled dextran (200 μl of 6 mg/ml in saline). Two hours after administration, the animal was sacrificed and the entire bowel from stomach to distal colon was collected. […] After pelleting the intestinal tissue and chyme, aliquots of the supernatant were read in duplicate on a plate reader (CytoFluor II; excitation wavelength 530 nm and emission 590 nm) for quantification of the fluorescent signal in each bowel segment. […] Intestinal transit was determined for statistical analysis by calculating the geometric center (GC).

[2] = test system: IL-1β mRNA; assay: IL-1β mRNA in muscularis after IM (real time RT-PCR); type: in vivo, mouse; conditions: IM + CO vs IM, 6 hr
Procedure: Pro- and anti-inflammatory gene expression was determined by real time RT-PCR. The small intestinal muscularis externa was collected at 4 time points (3, 6, 12, and 24 hr) postoperatively and snap frozen in liquid nitrogen. Total RNA extraction was performed using the guanidium-thiocyanate phenol-chloroform extraction method as described in Eskandari et al. (Id.) RNA pellets were resuspended in RNA-secure resuspension solution (Ambion Inc., Austin, Tex.), followed by removal of potential contaminating DNA by treatment with DNase I (DNA-Free Kit, Ambion Inc., Austin, Tex.). Equal aliquots (5 μg) of total RNA from each sample were quantified by spectrophotometry (wavelength […]). Peak mRNA expression was quantified in duplicate by SYBR Green two-step, real-time RT-PCR. β-actin was used as the endogenous reference. […] Real-time PCR data were plotted as the ΔRn fluorescence signal versus the cycle number. […] Quantification of mRNA expression was normalized to β-actin and calculated relative to control using the comparative CT method.
To exclude PCR amplification of contaminating genomic DNA, RT-negative controls (samples containing RNA which was not reverse transcribed) were included in each PCR reaction. […] PCR amplification efficiency of each target cDNA was measured by determining the colinearity of serial dilutions. […]

[C-]#[O+] [CO, carbon monoxide]
intestinal transit ([1]; SITx + CO, Table 2): normal | intestinal transit (Geometric Center) ([1]; SITx rats, inhaled CO 250 ppm, 48 hours postoperatively): significantly improved | distribution of fluorescent label along the gastrointestinal tract ([1]; transplanted animals treated with CO): small bowel segments 6, 7 and 8 | distribution of fluorescent label along the gastrointestinal tract ([1]; unoperated control rats treated with CO): small bowel segments 9 and 10, and in the cecum | peak IL-1β mRNA expression [2]: significantly inhibited
